According to patent US10112968B2, “Inhibitors of protein methyltransferase DOT1L and methods of use thereof” (Epizyme, Inc., priority 2012, dated 2018):
“Also recorded” adds a separate entry of the source. Each block holds one compound with its values, some of them ahead of it.

What was measured:
[1] = target: T1, DOT1L (Homo sapiens (Human), UniProt Q8TEK3); test: DOT1L enzymatic activity radiometric assay (methyl transfer from SAM to chicken erythrocyte nucleosomes); conditions: for IC50: read-out: DOT1L IC50; for alpha: global fit
T1 sequence (Q8TEK3 whole entry): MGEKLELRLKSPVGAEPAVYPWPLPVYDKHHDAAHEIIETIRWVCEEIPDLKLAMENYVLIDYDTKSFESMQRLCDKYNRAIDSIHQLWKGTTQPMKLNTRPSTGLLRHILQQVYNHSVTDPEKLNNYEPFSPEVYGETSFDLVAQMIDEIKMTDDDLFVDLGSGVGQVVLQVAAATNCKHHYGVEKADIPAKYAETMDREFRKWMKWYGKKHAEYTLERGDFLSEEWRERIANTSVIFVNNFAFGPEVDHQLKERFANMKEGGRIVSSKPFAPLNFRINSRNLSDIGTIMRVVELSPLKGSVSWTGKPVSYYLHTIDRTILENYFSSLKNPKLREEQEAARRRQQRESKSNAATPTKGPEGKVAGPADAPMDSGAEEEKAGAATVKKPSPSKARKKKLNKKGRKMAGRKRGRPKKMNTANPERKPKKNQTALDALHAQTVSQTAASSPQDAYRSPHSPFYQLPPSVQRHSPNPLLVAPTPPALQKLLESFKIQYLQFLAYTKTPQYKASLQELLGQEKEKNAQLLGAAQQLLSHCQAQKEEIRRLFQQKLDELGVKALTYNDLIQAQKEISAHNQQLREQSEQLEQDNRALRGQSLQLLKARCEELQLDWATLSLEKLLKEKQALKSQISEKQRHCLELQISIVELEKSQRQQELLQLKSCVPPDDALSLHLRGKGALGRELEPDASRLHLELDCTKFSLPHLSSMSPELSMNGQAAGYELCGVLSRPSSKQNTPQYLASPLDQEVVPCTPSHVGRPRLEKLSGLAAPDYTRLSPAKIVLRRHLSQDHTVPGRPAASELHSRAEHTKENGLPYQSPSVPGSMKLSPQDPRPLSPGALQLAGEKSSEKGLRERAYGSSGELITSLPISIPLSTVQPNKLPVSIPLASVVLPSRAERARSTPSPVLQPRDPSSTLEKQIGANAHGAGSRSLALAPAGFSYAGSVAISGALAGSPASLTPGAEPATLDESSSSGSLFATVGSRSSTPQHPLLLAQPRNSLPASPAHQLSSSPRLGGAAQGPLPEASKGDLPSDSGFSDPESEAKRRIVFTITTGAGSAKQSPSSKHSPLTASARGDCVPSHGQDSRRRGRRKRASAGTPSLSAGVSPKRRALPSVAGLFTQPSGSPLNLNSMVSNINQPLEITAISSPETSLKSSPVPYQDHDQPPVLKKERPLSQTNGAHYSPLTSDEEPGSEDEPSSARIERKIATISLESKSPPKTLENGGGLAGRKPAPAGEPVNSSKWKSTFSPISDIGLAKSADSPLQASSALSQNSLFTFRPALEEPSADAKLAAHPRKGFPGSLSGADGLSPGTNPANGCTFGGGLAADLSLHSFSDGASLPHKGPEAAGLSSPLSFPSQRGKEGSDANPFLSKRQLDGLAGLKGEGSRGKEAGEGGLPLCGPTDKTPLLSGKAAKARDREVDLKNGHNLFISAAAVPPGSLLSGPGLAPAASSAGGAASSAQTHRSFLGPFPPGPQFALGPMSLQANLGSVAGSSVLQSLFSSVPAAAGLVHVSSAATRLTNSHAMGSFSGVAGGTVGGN

[2] = test system: MV4-11 xenograft tumors; test: MV4-11 nude rat subcutaneous xenograft model of MLL-rearranged leukemia; assay type: in vivo
Protocol: Four groups of 10 (Groups 1, 2, 3, and 4 female RH nu/nu rats (7 weeks old, weighing 120-160 g) bearing MV4-11 xenograft tumors of sizes ranging from 300-600 mm^3 were implanted with a catheter in the femoral vein). The infusion flow rate was set at 1,500 μL/hour/kg and was adjusted to the most recent mean body weight of each treatment group (as an example, the infusion flow rate was 300 μL/hour for a group of rats having a mean body weight of 200 g). Group 1 received vehicle via a 21-day continuous IV infusion. Group 2 received 21-day continuous IV infusion of the test substance at 35 mg/kg/day. Group 3 received a daily 8-hour continuous IV infusion of the test substance at 67 mg/kg/day for 21 consecutive days. Between two IV infusions of the test substance, the rats were kept under IV infusion with NaCl 0.9% solution. Group 4 received a 21-day continuous IV infusion of the test substance at 70 mg/kg/day. Syringes used for the IV infusion were replaced every day.
The rats were terminated when the subcutaneous tumor reached a maximum volume of 9,000 mm^3 or at a maximum of 55 days after tumor cells injection.

[3] = Pharmacokinetic half-life in systemic circulation, rats; assay type: in vivo
[4] = Pharmacokinetic half-life in systemic circulation, dogs; assay type: in vivo
[5] = test system: H3K79 methylation; test: H3K79 methylation in treated leukemia cells; assay type: cell-based; conditions: treatment of leukemia cells
[6] = test system: MLL-rearranged leukemia cells; test: Cell killing in MLL-rearranged leukemia cells; assay type: cell-based
[7] = test system: leukemia cell lines without the chromosomal rearrangement of the MLL gene; test: Antiproliferative effect on leukemia cell lines without MLL rearrangement; assay type: cell-based
[8] = test system: other histone methyl marks; test: Effect on other histone methyl marks in cells; assay type: cell-based
[9] = test system: MV4-11 cells; test: Cell proliferation assay (Guava Viacount, 14 days); assay type: cell-based; conditions: Homo sapiens, 336 h, day 14, read-out: Cellular IC50 Proliferation
[10] = test system: MLL-rearranged leukemia; test: Aggressive, disseminated mouse model of MLL-rearranged leukemia; assay type: in vivo; conditions: as previously described
[11] = test system: H3K79me2 in MV4-11 cells; test: H3K79me2 quantitative ELISA; conditions: Homo sapiens, MV4-11, 96 h, read-out: Cellular IC50 H3K79 Methylation
[12] = test system: HOXA9 mRNA in MV4-11 cells; test: Quantitative real-time PCR analysis of HOXA9 message; conditions: Homo sapiens, MV4-11, 144 h, read-out: Cellular IC50 HOXA9 mRNA
[13] = target: T1, DOT1L; test: Ligand association and dissociation rate constants by surface plasmon resonance (SPR); assay type: binding; conditions: Kd calculated as koff/kon

SMILES: CC(C)N(C[C@H]1O[C@@H](n2cnc3c(N)ncnc32)[C@H](O)[C@@H]1O)[C@H]1C[C@@H](CCc2nc3cc(Cl)c(C(F)(F)F)cc3[nH]2)C1 [Compound A5, (2R,3R,4S,5R)-2-(6-amino-9H-purin-9-yl)-5-((((1r,3S)-3-(2-(5-chloro-6-(trifluoromethyl)-1H-benzo[d]imidazol-2-yl)ethyl)cyclobutyl)(isopropyl)amino)methyl)tetrahydrofuran-3,4-diol]
IC50 [1]: 0.59 nM

SMILES: CC(C)N(C[C@H]1O[C@@H](n2cnc3c(N)ncnc32)[C@H](O)[C@@H]1O)[C@H]1C[C@@H](CCc2nc3cc(C(C)(C)C)ccc3[nH]2)C1 [Compound A2, (2R,3R,4S,5R)-2-(6-amino-9H-purin-9-yl)-5-((((1r,3S)-3-(2-(5-(tert-butyl)-1H-benzo[d]imidazol-2-yl)ethyl)cyclobutyl)(isopropyl)amino)methyl)tetrahydrofuran-3,4-diol]
anti-tumor activity ([2]; continuous intravenous infusion for 21 days, FIG. 1): dose-dependent anti-tumor activity; also recorded: complete and sustained tumor regression
time with no regrowth after the cessation of treatment ([2]; highest dose (70 mg/kg/day)): up to 32 days
tumor regressions ([2]; highest dose (70 mg/kg/day), 21-day continuous IV infusion): complete tumor regressions
weight loss or toxicity during efficacy study ([2]; rats): No significant weight loss or obvious toxicity
effective pharmacokinetic half-life in systemic circulation [3]: 15 min
effective pharmacokinetic half-life in systemic circulation [4]: 90 min
H3K79 methylation [5]: concentration- and time-dependent diminution
cell killing [6]: selective, apoptotic cell killing
impact on non-rearranged cells [7]: minimal impact
effect on other histone methyl marks / methylation status of other histone sites [8]: without effect

SMILES: CC(C)N(CCCNC(=O)Nc1ccc(C(C)(C)C)cc1)C[C@H]1OC(n2ccc3c(N)ncnc32)C(O)[C@@H]1O (some centres unmarked) [Compound D16]
IC50 [9]: 146 ± 72 nM
survival [10]: statistically significant survival advantage
IC50 [11]: 5 ± 3 nM
IC50 [12]: 830 ± 170 nM
inhibition modality with respect to SAM [1]: competitive inhibitor
inhibition modality with respect to nucleosome [1]: noncompetitive inhibitor
alpha ([1]; FIG. 2A, varied SAM concentration): 10±6
alpha ([1]; FIG. 2B, varied oligonucleosome concentration): 0.5±0.2
ΔΔGbinding ([1]; between C118 and D16, at 25° C.): 2.4 to 2.9 kcal/mol

SMILES: CC(C)N(C[C@H]1O[C@@H](n2ccc3c(N)ncnc32)[C@H](O)[C@@H]1O)[C@H]1C[C@H](CCc2nc3cc(C(C)(C)C)ccc3[nH]2)C1 [Compound A75, (2R,3R,4S,5R)-2-(4-amino-7H-pyrrolo[2,3-d]pyrimidin-7-yl)-5-((((1s,3R)-3-(2-(5-(tert-butyl)-1H-benzo[d]imidazol-2-yl)ethyl)cyclobutyl)(isopropyl)amino)methyl)tetrahydrofuran-3,4-diol]
IC50 [1]: 0.59 nM

Kd [13]: 167 ± 100 nM
IC50 [9]: > 50000 nM
IC50 [11]: 28000 ± 25000 nM
IC50 [12]: > 50000 nM
Ki [1]: 845 nM
SMILES: CN(CCNC(=O)Nc1ccc(C(C)(C)C)cc1)C[C@H]1O[C@@H](n2cnc3c(N)ncnc32)[C@H](O)[C@@H]1O [Compound C94]

Ki [1]: 20000 nM
SMILES: CN(CCNC(=O)OCC1c2ccccc2-c2ccccc21)C[C@H]1OC(n2cnc3c(N)ncnc32)[C@H](O)[C@@H]1O (some centres unmarked) [Compound C64]

SMILES: CC(C)N(C[C@H]1O[C@@H](n2ccc3c(N)ncnc32)[C@H](O)[C@@H]1O)[C@H]1C[C@@H](CCc2nc3cc(OC(F)(F)F)ccc3[nH]2)C1 [Compound A87, (2R,3R,4S,5R)-2-(4-amino-7H-pyrrolo[2,3-d]pyrimidin-7-yl)-5-((isopropyl((1r,3S)-3-(2-(5-(trifluoromethoxy)-1H-benzo[d]imidazol-2-yl)ethyl)cyclobutyl)amino)methyl)tetrahydrofuran-3,4-diol]
IC50 [1]: 0.8 nM

SMILES: CN(C[C@H]1O[C@@H](n2ccc3c(N)ncnc32)[C@H](O)[C@@H]1O)[C@H]1C[C@@H](CCc2nc3cc(C(C)(C)C)ccc3[nH]2)C1 [Compound A86, (2R,3R,4S,5R)-2-(4-amino-7H-pyrrolo[2,3-d]pyrimidin-7-yl)-5-((((1r,3S)-3-(2-(5-(tert-butyl)-1H-benzo[d]imidazol-2-yl)ethyl)cyclobutyl)(methyl)amino)methyl)tetrahydrofuran-3,4-diol]
IC50 [1]: 0.62 nM
